Data: ChEMBL document CHEMBL6078723, “Novel steroidal β-carboline derivatives as promising antibacterial candidates against methicillin-resistant Staphylococcus aureus” (Eur J Med Chem, 2025)
Calls of active or inactive are those of the source. The calls are words filed in the database; no cut-off is given here.

Columns and labels:
Staphylococcus aureus [1] = assay: Antibacterial activity against Staphylococcus aureus CGMCC1.8721; type: functional
Staphylococcus aureus [2] = assay: Bactericidal activity against methicillin-resistant Staphylococcus aureus CGMCC1.12409 by CLSI based method; type: functional
Staphylococcus aureus [3] = assay: Antibacterial activity against methicillin-resistant Staphylococcus aureus CGMCC1.12409; type: functional
Staphylococcus aureus [4] = assay: Bactericidal activity against methicillin-resistant Staphylococcus aureus ATCC 43300 by CLSI based method; type: functional
Staphylococcus aureus [5] = assay: Antibacterial activity against methicillin-resistant Staphylococcus aureus ATCC 33591; type: functional
Staphylococcus aureus [6] = assay: Bactericidal activity against methicillin-resistant Staphylococcus aureus ATCC 33591 by CLSI based method; type: functional
Staphylococcus aureus [7] = assay: Bactericidal activity against Staphylococcus aureus CGMCC1.8721 by CLSI based method; type: functional
Staphylococcus aureus [8] = assay: Antibacterial activity against methicillin-resistant Staphylococcus aureus ATCC 43300; type: functional
Staphylococcus aureus [9] = assay: Antibacterial activity against Staphylococcus aureus CGMCC1.8721 in presence of phosphatidylglycerol; type: functional, organism-based
Staphylococcus aureus [10] = assay: Induction of resistance development in Staphylococcus aureus CGMCC1.8721 assessed as fold increase in MIC at sub-lethal concentration following serial passages for 30 days relative to control; type: functional; settings: time 30 day
Staphylococcus aureus [11] = assay: Antibacterial activity against methicillin-resistant Staphylococcus aureus CGMCC1.12409 infected in mouse model assessed as reduction in bacterial load at infection site at 5 mg/kg measured for 5 days relative to control; type: functional; design: scale not given: the % may be the effect or the level left; settings: time 5 day
Staphylococcus aureus [12] = assay: Antibacterial activity against methicillin-resistant Staphylococcus aureus CGMCC1.12409 infected in mouse model assessed as reduction in bacterial clones at 5 mg/kg measured for 5 days; type: functional, organism-based; settings: time 5.0 day
Staphylococcus aureus [13] = assay: Antibacterial activity against methicillin-resistant Staphylococcus aureus CGMCC1.12409 infected in mouse model assessed as reduction in inflammation in skin tissues at 5 mg/kg measured for 5 days by H and E staining based analysis; type: functional, organism-based; settings: time 5.0 day
Staphylococcus aureus [14] = assay: Antibacterial activity against methicillin-resistant Staphylococcus aureus CGMCC1.12409 infected in mouse model assessed as reduction in neutrophils in skin tissues at 5 mg/kg measured for 5 days by H and E staining based analysis; type: functional, organism-based; settings: time 5.0 day
Staphylococcus aureus [15] = assay: Antibacterial activity against methicillin-resistant Staphylococcus aureus CGMCC1.12409 infected in mouse model assessed as reduction in abscesses size at 5 mg/kg measured for 5 days; type: functional, organism-based; settings: time 5.0 day

Compound	MIC (Staphylococcus aureus [1])	MBC (Staphylococcus aureus [2])	MIC (Staphylococcus aureus [3])	MBC (Staphylococcus aureus [4])	MIC (Staphylococcus aureus [5])	MBC (Staphylococcus aureus [6])	MBC (Staphylococcus aureus [7])	MIC (Staphylococcus aureus [8])	Activity (Staphylococcus aureus [9])	fold change (FC) (Staphylococcus aureus [10])	Activity (Staphylococcus aureus [11])	Activity (Staphylococcus aureus [12])	Activity (Staphylococcus aureus [13])	Activity (Staphylococcus aureus [14])	Activity (Staphylococcus aureus [15])
COc1ccc2[nH]c3c(CC[C@H](C)[C@H]4CC[C@H]5[C@@H]6[C@H](O)C[C@@H]7C[C@H](O)CC[C@]7(C)[C@H]6C[C@H](O)[C@]45C)[n+](Cc4ccccc4C)ccc3c2c1.[Br-]	0.5 µg/mL	8 µg/mL	4 µg/mL	4 µg/mL	4 µg/mL	8 µg/mL	1 µg/mL	1 µg/mL							
CCC[n+]1ccc2c([nH]c3ccc(OC)cc32)c1CC[C@H](C)[C@H]1CC[C@H]2[C@@H]3[C@H](O)C[C@@H]4C[C@H](O)CC[C@]4(C)[C@H]3CC[C@]12C.[Br-]	1 µg/mL	4 µg/mL	2 µg/mL	2 µg/mL	2 µg/mL	4 µg/mL	2 µg/mL	2 µg/mL							
COc1ccc2[nH]c3c(CC[C@H](C)[C@H]4CC[C@H]5[C@@H]6[C@H](O)C[C@@H]7C[C@H](O)CC[C@]7(C)[C@H]6C[C@H](O)[C@]45C)[n+](Cc4cccc(F)c4)ccc3c2c1.[Br-]	1 µg/mL	4 µg/mL	2 µg/mL	2 µg/mL	2 µg/mL	2 µg/mL	2 µg/mL	1 µg/mL							
COc1ccc2[nH]c3c(CC[C@H](C)[C@H]4CC[C@H]5[C@@H]6[C@H](O)C[C@@H]7C[C@H](O)CC[C@]7(C)[C@H]6C[C@H](O)[C@]45C)[n+](Cc4ccc(F)cc4)ccc3c2c1.[Br-]	0.5 µg/mL	2 µg/mL	1 µg/mL	2 µg/mL	2 µg/mL	2 µg/mL	1 µg/mL	1 µg/mL							
CCCCCCCCCC(=O)N[C@@H](Cc1c[nH]c2ccccc12)C(=O)N[C@@H](CC(N)=O)C(=O)N[C@@H](CC(=O)O)C(=O)N[C@@H]1C(=O)NCC(=O)N[C@@H](CCCN)C(=O)N[C@@H](CC(=O)O)C(=O)N[C@H](C)C(=O)N[C@@H](CC(=O)O)C(=O)NCC(=O)N[C@H](CO)C(=O)N[C@@H]([C@@H](C)CC(=O)O)C(=O)N[C@@H](CC(=O)c2ccccc2N)C(=O)O[C@@H]1C									inactive						
CC[n+]1ccc2c([nH]c3ccc(OC)cc32)c1CC[C@H](C)[C@H]1CC[C@H]2[C@@H]3[C@H](O)C[C@@H]4C[C@H](O)CC[C@]4(C)[C@H]3CC[C@]12C.[Br-]	1 µg/mL	4 µg/mL	2 µg/mL	2 µg/mL	2 µg/mL	4 µg/mL	2 µg/mL	2 µg/mL							
CO[C@H]1/C=C/O[C@@]2(C)Oc3c(C)c(O)c4c(O)c(c(/C=N/N5CCN(C)CC5)c(O)c4c3C2=O)NC(=O)/C(C)=C\C=C\[C@H](C)[C@H](O)[C@@H](C)[C@@H](O)[C@@H](C)[C@H](OC(C)=O)[C@@H]1C									Active						
COc1cccc(C[n+]2ccc3c([nH]c4ccc(OC)cc43)c2CC[C@H](C)[C@H]2CC[C@H]3[C@@H]4[C@H](O)C[C@@H]5C[C@H](O)CC[C@]5(C)[C@H]4C[C@H](O)[C@]23C)c1.[Br-]	1 µg/mL	8 µg/mL	4 µg/mL	4 µg/mL	4 µg/mL	8 µg/mL	2 µg/mL	1 µg/mL							
COc1cccc(C[n+]2ccc3c([nH]c4ccc(OC)cc43)c2CC[C@H](C)[C@H]2CC[C@H]3[C@@H]4[C@H](O)C[C@@H]5C[C@H](O)CC[C@]5(C)[C@H]4CC[C@]23C)c1.[Br-]	4 µg/mL		8 µg/mL		8 µg/mL			8 µg/mL							
COc1ccc2[nH]c3c(CC[C@H](C)[C@H]4CC[C@H]5[C@@H]6[C@H](O)C[C@@H]7C[C@H](O)CC[C@]7(C)[C@H]6C[C@H](O)[C@]45C)[n+](Cc4ccc(Br)cc4)ccc3c2c1.[Br-]	1 µg/mL	4 µg/mL	2 µg/mL	2 µg/mL	2 µg/mL	4 µg/mL	2 µg/mL	2 µg/mL							
CNC(C)[C@@H]1CC[C@@H](N)[C@@H](O[C@H]2[C@H](O)[C@@H](O[C@H]3OC[C@](C)(O)[C@H](NC)[C@H]3O)[C@H](N)C[C@@H]2N)O1.CN[C@@H]1[C@@H](O)[C@@H](O[C@@H]2[C@@H](O)[C@H](O[C@H]3O[C@H](C(C)N)CC[C@H]3N)[C@@H](N)C[C@H]2N)OC[C@]1(C)O.CN[C@@H]1[C@@H](O)[C@@H](O[C@@H]2[C@@H](O)[C@H](O[C@H]3O[C@H](CN)CC[C@H]3N)[C@@H](N)C[C@H]2N)OC[C@]1(C)O (some centres undefined)									Active						
COc1ccc2[nH]c3c(CC[C@H](C)[C@H]4CC[C@H]5[C@@H]6[C@H](O)C[C@@H]7C[C@H](O)CC[C@]7(C)[C@H]6C[C@H](O)[C@]45C)[n+](Cc4ccccc4F)ccc3c2c1.[Br-]	1 µg/mL	4 µg/mL	2 µg/mL	2 µg/mL	4 µg/mL	4 µg/mL	2 µg/mL	1 µg/mL							
COc1ccc2[nH]c3c(CC[C@H](C)[C@H]4CC[C@H]5[C@@H]6[C@H](O)C[C@@H]7C[C@H](O)CC[C@]7(C)[C@H]6C[C@H](O)[C@]45C)[n+](Cc4ccc(C)cc4)ccc3c2c1.[Br-]	0.5 µg/mL	8 µg/mL	4 µg/mL	2 µg/mL	4 µg/mL	8 µg/mL	1 µg/mL	1 µg/mL							
CCCC[n+]1ccc2c([nH]c3ccc(OC)cc32)c1CC[C@H](C)[C@H]1CC[C@H]2[C@@H]3[C@H](O)C[C@@H]4C[C@H](O)CC[C@]4(C)[C@H]3CC[C@]12C.[Br-]	1 µg/mL	8 µg/mL	4 µg/mL	8 µg/mL	4 µg/mL	16 µg/mL	2 µg/mL	4 µg/mL							
CC[n+]1ccc2c([nH]c3ccc(OC)cc32)c1CC[C@H](C)[C@H]1CC[C@H]2[C@@H]3CC[C@@H]4C[C@H](O)CC[C@]4(C)[C@H]3CC[C@]12C.[Br-]	16 µg/mL		16 µg/mL		32 µg/mL			16 µg/mL							
CCn1cc(C(=O)O)c(=O)c2cc(F)c(N3CCNCC3)cc21 [NORFLOXACIN]									Active	64					
CN[C@H](CC(C)C)C(=O)N[C@H]1C(=O)N[C@@H](CC(N)=O)C(=O)N[C@H]2C(=O)N[C@H]3C(=O)N[C@H](C(=O)N[C@H](C(=O)O)c4cc(O)cc(O)c4-c4cc3ccc4O)[C@H](O)c3ccc(c(Cl)c3)Oc3cc2cc(c3O[C@@H]2O[C@H](CO)[C@@H](O)[C@H](O)[C@H]2O[C@H]2C[C@](C)(N)[C@H](O)[C@H](C)O2)Oc2ccc(cc2Cl)[C@H]1O [VANCOMYCIN]									Active		92.98%	Active	Active	Active	Active
CC[n+]1ccc2c([nH]c3ccc(OC)cc32)c1CC[C@H](C)[C@H]1CC[C@H]2[C@@H]3[C@H](O)C[C@@H]4C[C@H](O)CC[C@]4(C)[C@H]3C[C@H](O)[C@]12C.[Br-]	16 µg/mL		16 µg/mL		16 µg/mL			16 µg/mL							
COc1ccc2[nH]c3c(CC[C@H](C)[C@H]4CC[C@H]5[C@@H]6[C@H](O)C[C@@H]7C[C@H](O)CC[C@]7(C)[C@H]6C[C@H](O)[C@]45C)[n+](Cc4ccc(OC(F)(F)F)cc4)ccc3c2c1.[Br-]	1 µg/mL	2 µg/mL	1 µg/mL	2 µg/mL	2 µg/mL	4 µg/mL	1 µg/mL	1 µg/mL							
COc1ccc2[nH]c3c(CC[C@H](C)[C@H]4CC[C@H]5[C@@H]6[C@H](O)C[C@@H]7C[C@H](O)CC[C@]7(C)[C@H]6CC[C@]45C)[n+](Cc4ccccc4F)ccc3c2c1.[Br-]	4 µg/mL		8 µg/mL		8 µg/mL			4 µg/mL							
COc1ccc2[nH]c3c(CC[C@H](C)[C@H]4CC[C@H]5[C@@H]6[C@H](O)C[C@@H]7C[C@H](O)CC[C@]7(C)[C@H]6CC[C@]45C)[n+](Cc4cccc(F)c4)ccc3c2c1.[Br-]	4 µg/mL		8 µg/mL		8 µg/mL			8 µg/mL							
